Assay [1] concerns Human immunodeficiency virus 1. Briefly: Antiviral activity against HIV1. It counts as functional, organism-based.
The subject of assay [2] is Human immunodeficiency virus 1. Briefly: Binding affinity to HIV1 Nucleocapsid protein expressed in Escherichia coli BL21(DE3) pLysE at 1:1 ratio of compound/protein by 1H NMR spectroscopy.

The source made the active and inactive calls. No cut-off for these calls is given here.

For the molecule `Nc1ncc(-c2cnc(N)[nH]c2=O)c(=O)[nH]1`, the result in assay [1] was inactive.

`Nc1ncc(-c2c[nH]cn2)c(=O)[nH]1`: in assay [1], the result was inactive.

For the molecule `Nc1nc(-c2cc(=O)[nH]c(N)n2)cc(=O)[nH]1`, the result in assay [1] was inactive.

In the case of `Nc1nc(-c2c[nH]cn2)cc(=O)[nH]1`, the result in assay [1] was inactive. The result in assay [2] was Active.

Source of the values: ChEMBL document CHEMBL4340568, “Synthesis of distal and proximal fleximer base analogues and evaluation in the nucleocapsid protein of HIV-1” (Bioorg Med Chem, 2019).
